Drawing on patent publication US10633389B2, “CARM1 inhibitors and uses thereof” (Epizyme, Inc., priority 2013, dated 2020), this text covers IC50 for 49 molecules.

Broadly, the IC50 is the midpoint of a concentration-inhibition curve. A lower IC50 goes with greater potency.

The subject of this assay is asymmetric di-methyl PABP1 in RKO cells. The assay is described as follows: RKO methylation assay, In Cell Western (ICW) for asymmetric di-methyl PABP1. In kind it is cell-based. Conditions: Homo sapiens, RKO, Cellular potencies, ICW PABP1me2a. An excerpt:
RKO adherent cells were purchased from ATCC (American Type Culture Collection), Manassas, Va., USA. DMEM/Glutamax medium, penicillin-streptomycin, heat inactivated fetal bovine serum, 0.05% trypsin and D-PBS were purchased from Life Technologies, Grand Island, N.Y., USA. Odyssey blocking buffer, 800 CW goat anti-rabbit IgG (H+L) antibody, and Licor Odyssey infrared scanner were purchased from Licor Biosciences, Lincoln, Nebr., USA. Asymmetric di-methyl PABP1 antibody was purchased from Cell Signaling Technology, Danvers, Mass., USA. Methanol was purchased from VWR, Franklin, Mass., USA. 10% Tween 20 was purchased from KPL, Inc., Gaithersburg, Md., USA. Paraformaldehyde (PFA) was purchased from EM Sciences. DRAQ5 was purchased from Biostatus Limited, Leicestershire, UK.
RKO adherent cells were maintained in growth medium (DMEM/Glutamax medium supplemented with 10% v/v heat inactivated fetal bovine serum and 100 units/mL penicillin-streptomycin) and cultured at 37° C. under 5% CO2.
Cell treatment, In Cell Western (ICW) for detection of asymmetric di-methyl PABP1 and DNA content: RKO cells were seeded in assay medium at a concentration of 30,000 cells per mL to a poly-D-lysine coated 384 well culture plate (BD Biosciences 356697) with 50 VL per well. Compound (100 nL) from a 96-well source plate was added directly to 384 well cell plate. Plates were incubated at 37° C., 5% CO2 for 48 hours. After two days of incubation, plates were brought to room temperature outside of the incubator for ten minutes and blotted on paper towels to remove cell media. Cells were fixed for 20 minutes at room temperature by adding 50 ul of 8% PFA followed by aspiration of supernatant with the Biotek EL406 plate washer. Cells were then permeabilized by addition of 50 μL of ice cold 100% methanol directly to each well and incubated for 30 min at room temperature. After 30 min, plates were transferred to a Biotek EL406 plate washer and washed 2 times with 100 μL per well of wash buffer (1×PBS). Next 60 μL per well of Odyssey blocking buffer (Odyssey Buffer with 0.1% Tween 20 (v/v)) were added to each plate and incubated 1 hour at room temperature. Blocking buffer was removed and 20 μL per well of primary antibody was added (asymmetric-methyl PABP1) diluted 1:400 in Odyssey buffer with 0.1% Tween 20 (v/v)) and plates were incubated overnight (16 hours) at 4° C. Plates were washed 5 times with 100 μL per well of wash buffer. Next 20 μL per well of secondary antibody was added (1:800 800 CW goat anti-rabbit IgG (H+L) antibody, 1:2000 DRAQ5 in Odyssey buffer with 0.1% Tween 20 (v/v)) and incubated for 1 hour at room temperature. The plates were washed 5 times with 100 μL per well wash buffer then 2 times with 100 μL per well of water. Plates were allowed to dry at room temperature then imaged on the Licor Odyssey machine which measures integrated intensity at 700 nm and 800 nm wavelengths. Both 700 and 800 channels were scanned.
First, the ratio for each well was determined by:
Each plate included fourteen control wells of DMSO only treatment (minimum inhibition) as well as fourteen control wells for maximum inhibition treated with 20 μM of a reference compound. The average of the ratio values for each control type was calculated and used to determine the percent […] for each test well in the plate. Reference compound was serially diluted three-fold in DMSO for a total of nine test concentrations, beginning at 20 μM.
Percent inhibition was determined and IC50 curves were generated using triplicate wells per concentration of compound. […]
Consider `CNCC(O)COc1cc(Cl)cc(-c2nc(NC3CCOCC3)c(C)c(-c3c(C)noc3C)n2)c1` (stereo not shown) [Example 47-1a], for which the IC50 is under 5 µM.
Molecule `CC[C@@H]1CN(c2nc(-c3cccc(OCC(O)CNC)c3)nc(-c3c(C)noc3C)c2C)CCN1S(C)(=O)=O` (stereo partly shown) [Example 153-1a] showed an IC50 of under 5 µM.
`CNCC(O)COc1cccc(-c2nc(N[C@H]3CCOC3=O)c(C)c(-c3c(C)noc3C)n2)c1` (stereo partly shown) [Example 281-1a]: the IC50 lay within 10 to 20 µM.
Take `CNC[C@@H](O)COc1ccc(Cl)c(-c2nc(-c3c(C)noc3C)c(C)c(N3CC4(CCOCC4)C3)n2)c1` [Example 118-3]: the IC50 was under 5 µM.
`CNC[C@@H](O)COc1ccc(Cl)c(-c2nc(N[C@H]3CN(C(=O)OC)C[C@@H]3F)c(C)c(-c3c(C)noc3C)n2)c1` [Example 202-3] had an IC50 of under 5 µM.
As for `CNC[C@@H](O)COc1ccc(F)c(-c2nc(-c3c(C)noc3C)c(C)c(N3Cc4cnn(C)c4C3)n2)c1` [Example 223-3], the IC50 is under 5 µM.
The molecule `CNCC(O)COc1cccc(-c2nc(N(C)C3CCOCC3)cc(-n3nc(C)cc3C)n2)c1` (stereo not shown) [Example 568-1a] showed an IC50 of 10 to 20 µM.
Turning to `CCOC(=O)N1CCC(Nc2nc(-c3cc(OC[C@H](O)CNC)ccc3Cl)nc(-c3c(C)noc3C)c2C)CC1` [Example 88-3], the IC50 is under 5 µM.
`CNC[C@@H](O)COc1ccc(Cl)c(-c2nc(N[C@@H]3CCO[C@@H](C)C3)c(C)c(-c3c(C)noc3C)n2)c1` [Example 257-3]: the IC50 was under 5 µM.
`CNC[C@@H](O)COc1ccc(F)c(-c2nc(-c3c(C)noc3C)c(C)c(N3Cc4cccc(F)c4C3)n2)c1` [Example 266-3]: the IC50 is under 5 µM.
The figure for `CNCC(O)COc1cccc(-c2nc(N[C@H]3CCOC[C@@H]3F)c(C)c(-c3c(C)noc3C)n2)c1` (stereo partly shown) [Example 279-1a] is under 5 µM; for `CCOC(=O)N1CCC[C@@H]1COc1nc(-c2cc(OC[C@H](O)CNC)ccc2Cl)nc(-c2c(C)noc2C)c1C` [Example 133-3] it is under 5 µM.
On to `Cc1noc(C)c1-c1cc(NC2CCOCC2)nc(-c2cccc(OC[C@@H](O)CN)c2)n1` [Example 15-1a], for which the IC50 is 10 to 20 µM.
`CNCC(O)COc1cccc(-c2nc(-c3c(C)noc3C)cc(N3CCN(C4CC4)CC3)n2)c1` (stereo not shown) [Example 30-1a] displayed an IC50 of under 5 µM.
`CCS(=O)(=O)N1CCCC(CNc2nc(-c3cccc(OCC(O)CNC)c3)nc(-c3c(C)noc3C)c2C)C1` (stereo not shown) [Example 167-1a] returned an IC50 of under 5 µM.
Regarding `CNC[C@@H](O)COc1ccc(Cl)c(-c2nc(OC[C@H]3CCOC3)c(C)c(-c3c(C)noc3C)n2)c1` [Example 117-3], the IC50 is under 5 µM.
Consider `CNCC(O)COc1cccc(-c2nc(-c3cncnc3)cc(N(C)C3CCOCC3)n2)c1` (stereo not shown) [Example 525-1a], for which the IC50 fell in the range of 5 to 10 µM.
On to `CNCC(O)COc1cccc(-c2nc(Nc3nncs3)c(C)c(-c3c(C)noc3C)n2)c1` (stereo not shown) [Example 215-1a], for which the IC50 was under 5 µM.
As to `CNC[C@@H](O)COc1ccc(Cl)c(-c2nc(-c3c(C)noc3C)c(C)c(N3CC4(CCN(C5CC5)C4)C3)n2)c1` [Example 176-3], the half-maximal inhibitory concentration (IC50) was under 5 µM.
Regarding `CNCC(O)COc1cccc(-c2nc(N[C@H]3CCC[C@H]3O)c(C)c(-c3c(C)noc3C)n2)c1` (stereo partly shown) [Example 218-1a], the IC50 was under 5 µM.
In turn, `CNCC(O)COc1cccc(-c2nc(NC3CC3)c(C)c(-c3c(C)noc3C)n2)c1` (stereo not shown) [Example 293-1a] returned an IC50 of under 5 µM.
For the molecule `CNC[C@@H](O)COc1ccc(Cl)c(-c2nc(N[C@@H]3CO[C@H](C)C3)c(C)c(-c3c(C)noc3C)n2)c1` [Example 179-3], the IC50 was under 5 µM.
For the molecule `CNC[C@@H](O)COc1ccc(F)c(-c2nc(-c3c(C)noc3C)c(C)c(N3Cc4cc(OC)cnc4C3)n2)c1` [Example 244-3], the IC50 is under 5 µM.
`CNCC(O)COc1cccc(-c2nc(N[C@@H]3CCOC3)c(C)c(N3CCC(n4nc(C)cc4C)C3)n2)c1` (stereo partly shown) [Example 468-1a] registered an IC50 of 5 to 10 µM.
For `CNCC(O)COc1cccc(-c2nc(N[C@@H]3CCOC3)c(C)c(C3=CC(C)(C)NC(C)(C)C3)n2)c1` (stereo partly shown) [Example 415-1a], the IC50 lay in the range of 10 to 20 µM.
Molecule `CNC[C@@H](O)COc1ccc(Cl)c(-c2nc(N[C@H]3CC[C@@H](OC)C3)c(C)c(-c3c(C)noc3C)n2)c1` [Example 212-3] came in with an IC50 of under 5 µM.
`CNCC(O)COc1cccc(-c2nc(NC3CCOC(C)C3)c(C)c(-c3c(C)noc3C)n2)c1` (stereo not shown) [Example 239-1a] registered an IC50 of under 5 µM.
`CNCC(O)COc1cc(O)cc(-c2nc(NC3CCOCC3)c(C)c(-c3c(C)noc3C)n2)c1` (stereo not shown) [Example 76-1a] came in with an IC50 of 10 to 20 µM.
In turn, `CNC[C@@H](O)COc1ccc(Cl)c(-c2nc(N[C@@H]3CCN(C)C[C@@H]3F)c(C)c(-c3c(C)noc3C)n2)c1` [Example 194-3] returned an IC50 of under 5 µM.
The figure for `CNCC(O)COc1cccc(-c2nc(N[C@H]3C[C@H](O)C3)c(C)c(-c3c(C)noc3C)n2)c1` (stereo partly shown) [Example 254-1a] is under 5 µM; for `CNCC(O)COc1cccc(-c2nc(-c3ncc(C)n3C)cc(N(C)C3CCOCC3)n2)c1` (stereo not shown) [Example 491-1a] it is under 5 µM.
For the molecule `CNCC(O)COc1cccc(-c2nc(N[C@H]3C[C@@H](O)C3)c(C)c(-c3c(C)noc3C)n2)c1` (stereo partly shown) [Example 256-1a], the IC50 was under 5 µM.
Take `CCN(CC)c1nc(-c2cccc(OCC(O)CNC)c2)nc(N2CCOCC2)c1C` (stereo not shown) [Example 682-1a]: the IC50 was at least 20 µM.
`CNCC(O)COc1cccc(-c2nc(-c3c(C)noc3C)cc(N3CCN(C)[C@H](C)C3)n2)c1` (stereo partly shown) [Example 175-1a] returned an IC50 of 5 to 10 µM.
Consider `CNCC(O)COc1cccc(-c2nc(-c3c(C)noc3C)c(C)c(N3CCO[C@@H](CN(C)C(=O)N(C)C)C3)n2)c1` (stereo partly shown) [Example 176-1a], for which the IC50 was under 5 µM.
Regarding `CNCC(O)COc1cccc(-c2nc(NC3CCOC3)c(C)c(N3CCN(CC(F)(F)F)CC3)n2)c1` (stereo not shown) [Example 449-1a], the IC50 was under 5 µM.
The result for `CNCC(O)COc1ccc(C)c(-c2nc(NC3CCN(C(=O)OC)CC3)c(C)c(-c3c(C)noc3C)n2)c1` (stereo not shown) [Example 125-3] reads under 5 µM; that for `CNCC(O)COc1cccc(-c2nc(Nc3cc(C)on3)c(C)c(-c3c(C)noc3C)n2)c1` (stereo not shown) [Example 233-1a], 10 to 20 µM.
Molecule `CNCC(O)COc1ccc(Cl)c(-c2nc(NC3CCOCC3)c(C)c(-c3c(C)nsc3C)n2)c1` (stereo not shown) [Example 97-3] displayed an IC50 of under 5 µM.
`CNC[C@H](O)COc1cccc(-c2nc(NC3CCN(C(=O)OC)CC3)c(C)c(-c3c(C)noc3C)n2)c1` [Example 169-1a] came in with an IC50 of under 5 µM.
On to `CNCC(O)COc1cccc(-c2nc(Nc3nccn3C)c(C)c(-c3c(C)noc3C)n2)c1` (stereo not shown) [Example 18-3], for which the IC50 fell in the range of 10 to 20 µM.
The result for `CNCC(O)COc1cccc(-c2nc(-c3cn(S(C)(=O)=O)c4ncncc34)cc(N(C)C3CCOCC3)n2)c1` (stereo not shown) [Example 483-1a] reads under 5 µM; that for `CNCC(O)COc1cccc(-c2nc(-c3c(C)noc3C)c(C)c(N3CCC[C@H](N(C)C(=O)OC)C3)n2)c1` (stereo partly shown) [Example 15-3], 5 to 10 µM; that for `CCOC(=O)N1CCC(Nc2nc(-c3cc(OC[C@@H](O)CNC)ccc3Cl)nc(-c3c(C)noc3C)c2C)CC1` [Example 105-3], under 5 µM.
In turn, `CNCC(O)COc1cccc(-c2nc(-c3c(C)noc3C)c(C)c(N3CC[C@H](N(C)C(C)=O)C3)n2)c1` (stereo partly shown) [Example 71-1a] gave an IC50 of under 5 µM.
The figure for `CNCC(O)COc1cc(Cl)cc(-c2nc(C(=O)NCC3CCOCC3)cc(N(C)C3CCOCC3)n2)c1` (stereo not shown) [Example 508-1a] is under 5 µM; for `CNCC(O)COc1cccc(-c2nc(-c3ccnc(C(C)(C)O)c3)cc(N(C)C3CCOCC3)n2)c1` (stereo not shown) [Example 503-1a] it is under 5 µM; for `CNCC(O)COc1cc(Cl)cc(-c2nc(NC3CCN(CC(F)F)CC3)c(C)c(-c3c(C)noc3C)n2)c1` (stereo not shown) [Example 21-3] it is under 5 µM.
Regarding `CNCC(O)COc1cccc(-c2nc(-c3cccc4ncccc34)cc(N(C)C3CCOCC3)n2)c1` (stereo not shown) [Example 616-1a], the IC50 lay in the range of 10 to 20 µM.
